In article PMC11393688, “Design and synthesis of new 1,2,4-oxadiazole/quinazoline-4-one hybrids with antiproliferative activity as multitargeted inhibitors” (Frontiers in Chemistry, 2024):

How the values were obtained:
[1] = Cell viability, MTT test on normal cell line; format: cell-based; conditions: human, MCF-10A mammary gland epithelial cells (normal cell line), MCF-10A normal cells, 4 days incubation
Method: The human mammary gland epithelial (MCF-10A) normal cell line was used to test the viability of novel compounds 9a-o ([Mahmoud et al., 2022]; [Mekheimer et al., 2022]). After 4 days of incubation on MCF-10A cells, the cell viability of compounds 9a-o was determined using the MTT test.
The human mammary gland epithelial (MCF-10A) normal cell line was used to test the viability of compounds 9a-o ([Mahmoud et al., 2022]; [Mekheimer et al., 2022]). Refer to Supplementary Appendix A (Supplementary Material) for more details.
4.2. Biological evaluation
4.2.1. Cytotoxic activity using MTT Assay and evaluation of IC50
MTT assay was carried out to study the effect of compounds on mammary epithelial cells (MCF-10A). The medium in which cells were propagated contained Dulbecco's modified Eagle's medium (DMEM)/ Ham's F-12 medium (1:1) supplemented with epidermal growth factor (20 ng/mL), hydrocortisone (500 ng/mL), insulin (10 μg/mL), 2 mM glutamine and 10% foetal calf serum.
After every 2-3 days, the cells were passaged using trypsin ethylenediamine tetra acetic acid (EDTA). The cells were seeded at a density of 10^4 cells mL-1 in flat-bottomed culture plates containing 96 wells each. After 24 h, medium was removed from the plates and the compounds in (in 0.1% DMSO) were added (in 200 μL medium to yield a final concentration of 0.1% v/v) to the wells of plates. A single compound was designated with four wells followed by incubation of plates for 96h at 37°C. After incubation, medium was removed completely from the plates followed by addition of MTT (0.4 mg/mL in medium) to each well and subsequent incubation of plates for 3h. MTT (along with the medium) was removed and DMSO (150μL) was added to each well of the culture plates, followed by vertexing and subsequent measurement of absorbance (at 540 nm) using microplate reader. The data are shown as percentage inhibition of proliferation in comparison with controls containing 0.1% DMSO.

[2] = tested on: lung cancer (A-549) cell line; test: Antiproliferative MTT assay, A-549; format: cell-based; conditions: Homo sapiens, A549, A-549 lung cancer cells, read-out: Antiproliferative activity IC50 ± SEM A-549
Method: (§1) 4.2.1.2. Assay for antiproliferative effect
(§2) To explore the antiproliferative potential of compounds MTT assay was performed according to previously reported procedure using different cell lines to explore the antiproliferative potential of […]
(§3) calculate the total nuclear DNA, a fluorescent dye (propidium iodide, PI) is used which can attach to the DNA, thus offering a quick and precise technique. PI cannot pass through the cell membrane and its signal intensity can be considered as directly proportional to quantity of cellular DNA.
(§4) Cells whose cell membranes are damaged or have changed permeability are counted as dead ones.
(§5) The assay was performed by seeding the cells of different cell lines at a density of 3000-7500 cells/well (in 200µl medium) in culture plates followed by incubation for 24h at 37 °C in humidified 5% CO2/95% air atmospheric conditions. The medium was removed; the compounds were added to the plates at 10 µM concentrations (in 0.1% DMSO) in triplicates, followed by incubation for 48 h. DMSO (0.1%) was used as control. After incubation, medium was removed […]
(§6) 80 °C, the plates were allowed to freeze for 24 h, followed by thawing at 25 °C. […]
(§7) (Polar-Star BMG Tech) was used to record the readings at excitation and emission wavelengths of 530 and 620 nm for each well. The percentage cytotoxicity of compounds was calculated using […]
(§8) Where ATC= Absorbance of treated cells and AC= Absorbance of control. Erlotinib was used as positive control in the assay.

[3] = tested on: breast cancer (MCF-7) cell line; test: Antiproliferative MTT assay, MCF-7; format: cell-based; conditions: Homo sapiens, MCF7, MCF-7 breast cancer cells, read-out: Antiproliferative activity IC50 ± SEM MCF-7
Method: as §1, §2, §3, §4, §5, §6, §7, §8

[4] = tested on: pancreatic cancer (Panc-1) cell line; test: Antiproliferative MTT assay, Panc-1; format: cell-based; conditions: Homo sapiens, Panc-1 pancreatic cancer cells, read-out: Antiproliferative activity IC50 ± SEM Panc-1
Method: as §1, §2, §3, §4, §5, §6, §7, §8

[5] = tested on: four human cancer cell lines (HT-29, Panc-1, A-549, MCF-7); test: Average antiproliferative activity (GI50) over four cancer cell lines; format: cell-based; conditions: average IC50 against the four cancer cell lines
Method: as §1, §2, §3, §4, §5, §6, §7, §8

[6] = tested on: colon cancer (HT-29) cell line; test: Antiproliferative MTT assay, HT-29; format: cell-based; conditions: Homo sapiens, HT-29 colon cancer cells, read-out: Antiproliferative activity IC50 ± SEM HT-29
[7] = molecular target: T1, EGFR (Homo sapiens, UniProt P00533); test: EGFR-TK inhibitory assay; format: biochemical; conditions: read-out: EGFR inhibition IC50 ± SEM
T1 construct: amino acids 645–1186; His6 (N); made in house; host or cells: Sf-9 insect cells (baculovirus; pBlueBacHis2B / pFASTBacHTc)
Method: 4.2.1.3. EGFR inhibitory assay
Sf-9 cells were infected for 72h for protein expression. […]
centrifugation for 20 min.
Histidine-linked proteins were first eluted with 250 and then […]
using wash buffer. Europium-tagged antiphosphotyrosine antibody (75 µL, 400 ng) was added to each well followed by incubation of 1h and then washing of the plates using buffer. The enhancement solution was added to each well and the signal was recorded at excitation and […]
The autophosphorylation percentage inhibition by compounds was calculated using the following equation: […]
(1 picture or pasted object on this page, not shown here)

[8] = molecular target: T2, BRAF^V600E (Homo sapiens, UniProt P15056, V600E); test: BRAF^V600E kinase inhibitory assay; format: biochemical, Mouse; conditions: read-out: BRAF^V600E inhibition IC50 ± SEM
T2 construct: Mouse full-length GST-tagged BRAFV600E; GST; purchased Invitrogen PV3849
Method: Refer to Supplementary Appendix A for more details. […]
4.2.1.4. BRAF kinase assay […]
against BRAF. Mouse full-length GST-tagged BRAFV600E (7.5 ng, Invitrogen, PV3849) was pre-incubated with drug (1 µL) and assay dilution buffer (4 µL) for 60 min at 25 °C. In assay dilution buffer, a solution (5 µL) containing MgCl2 (30 mM), ATP (200 µM), recombinant human full length (200 ng) […] N-terminal His-tagged MEK1 (Invitrogen) was added to start the assay, subsequent to incubation for 25 min at 25 °C. The assay was stopped using 5X protein denaturing buffer (LDS) solution (5 µL). To further denature the protein, heat (70° C) was applied for 5 min.
10 µL of each reaction was loaded into the precast plates and electrophoresis was allowed to proceed. After completion of electrophoresis, the front part of the precast gel plate (holding hot ATP) was cut and afterwards cast-off. The dried gel was developed using a phosphor screen. A […]
served as positive control. […]
(FITC) and propidium iodide (PI) staining kit (BD Pharmingen, San Diego, USA). […]
4.3. Statistical analysis
Computerized Prism 5 program was used to statistically analyzed data using one-way ANOVA test followed by Tukey’s as post ANOVA for multiple comparison at P ≤.05. Data were presented

T2 sequence (P15056 2-766 V600E limits assumed): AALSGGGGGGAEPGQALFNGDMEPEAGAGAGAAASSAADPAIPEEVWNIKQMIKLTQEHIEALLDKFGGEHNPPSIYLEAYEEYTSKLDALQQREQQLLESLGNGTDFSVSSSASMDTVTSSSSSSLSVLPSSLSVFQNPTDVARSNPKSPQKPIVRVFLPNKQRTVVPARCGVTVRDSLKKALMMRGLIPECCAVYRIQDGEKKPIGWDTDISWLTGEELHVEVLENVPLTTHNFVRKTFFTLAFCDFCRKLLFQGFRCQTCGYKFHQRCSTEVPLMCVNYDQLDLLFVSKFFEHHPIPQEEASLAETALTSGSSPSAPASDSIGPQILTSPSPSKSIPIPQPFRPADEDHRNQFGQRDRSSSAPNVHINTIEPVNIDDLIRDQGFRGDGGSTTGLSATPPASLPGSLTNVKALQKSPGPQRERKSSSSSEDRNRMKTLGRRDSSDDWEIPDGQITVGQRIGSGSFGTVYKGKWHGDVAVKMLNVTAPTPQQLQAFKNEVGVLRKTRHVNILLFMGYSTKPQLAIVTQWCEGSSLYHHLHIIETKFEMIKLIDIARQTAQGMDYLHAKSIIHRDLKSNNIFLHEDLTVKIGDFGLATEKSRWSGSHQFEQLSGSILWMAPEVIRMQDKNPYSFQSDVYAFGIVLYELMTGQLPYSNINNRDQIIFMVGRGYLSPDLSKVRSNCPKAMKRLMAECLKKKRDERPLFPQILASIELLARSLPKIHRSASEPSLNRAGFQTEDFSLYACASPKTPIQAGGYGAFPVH
T1 sequence (P00533 669-1210): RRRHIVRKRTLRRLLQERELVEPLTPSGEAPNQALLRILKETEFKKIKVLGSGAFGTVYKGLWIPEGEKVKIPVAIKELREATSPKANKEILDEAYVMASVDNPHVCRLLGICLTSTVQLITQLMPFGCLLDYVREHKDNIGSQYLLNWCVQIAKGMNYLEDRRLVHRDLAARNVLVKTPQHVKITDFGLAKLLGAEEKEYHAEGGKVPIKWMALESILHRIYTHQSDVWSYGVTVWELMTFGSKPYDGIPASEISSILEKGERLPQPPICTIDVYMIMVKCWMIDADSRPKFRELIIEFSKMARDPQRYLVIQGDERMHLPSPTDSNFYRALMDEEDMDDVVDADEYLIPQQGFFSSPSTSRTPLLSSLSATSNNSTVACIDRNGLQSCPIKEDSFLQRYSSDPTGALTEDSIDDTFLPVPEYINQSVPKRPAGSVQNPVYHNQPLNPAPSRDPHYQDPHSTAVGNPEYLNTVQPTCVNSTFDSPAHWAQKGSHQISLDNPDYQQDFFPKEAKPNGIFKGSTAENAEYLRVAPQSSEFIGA

Row | Compound | viability at 96 h, 50 µM [1] [%] | IC50 [2] [nM] | IC50 [3] [nM] | IC50 [4] [nM] | GI50 [5] [nM] | melting point [°C] | IC50 [6] [nM] | IC50 [7] [nM] | IC50 [8] [nM]
1 | C=CCn1c(SCc2nc(-c3ccc(Cl)cc3)no2)nc2ccccc2c1=O [Compound 9n, 2-((3-(4-Chlorophenyl)-1,2,4-oxadiazol-5-yl)methylthio)-3-allylquinazolin-4(3H)-one] | 91 | 43 ± 4 | 47 ± 4 | 45 ± 4 | 45 | 115 to 117 | 44 ± 4 | – | –
2 | Cc1ccc(-n2c(SCc3nc(-c4ccc(Cl)cc4)no3)nc3ccccc3c2=O)cc1 [Compound 9e, 2-((3-(4-Chlorophenyl)-1,2,4-oxadiazol-5-yl)methylthio)-3-p-tolylquinazolin-4(3H)-one] | 91 | 40 ± 3 | 44 ± 4 | 42 ± 4 | 42 | 156 to 158 | 42 ± 4 | – | –
3 | Cc1cccc(-n2c(SCc3nc(-c4ccccc4)no3)nc3ccccc3c2=O)c1 [Compound 9g, 2-((3-Phenyl-1,2,4-oxadiazol-5-yl)methylthio)-3-m-tolylquinazolin-4(3H)-one] | 90 | 49 ± 4 | 52 ± 5 | 50 ± 5 | 50 | 170 to 172 | 50 ± 5 | – | –
4 | CCn1c(SCc2nc(-c3ccccc3)no2)nc2ccccc2c1=O [Compound 9j, 2-((3-Phenyl-1,2,4-oxadiazol-5-yl)methylthio)-3-ethylquinazolin-4(3H)-one] | 90 | 69 ± 6 | 76 ± 7 | 68 ± 6 | 70 | 114 to 116 | 68 ± 6 | – | –
5 | COc1ccc(-c2noc(CSc3nc4ccccc4c(=O)n3-c3ccc(C)cc3)n2)cc1 [Compound 9f, 2-((3-(4-Methoxyphenyl)-1,2,4-oxadiazol-5-yl)methylthio)-3-p-tolylquinazolin-4(3H)-one] | 92 | 50 ± 4 | 53 ± 5 | 52 ± 5 | 52 | 165 to 167 | 52 ± 5 | – | –
6 | C=CCn1c(SCc2nc(-c3ccc(OC)cc3)no2)nc2ccccc2c1=O [Compound 9o, 2-((3-(4-Methoxyphenyl)-1,2,4-oxadiazol-5-yl)methylthio)-3-allylquinazolin 4(3H)-one] | 89 | 56 ± 4 | 59 ± 5 | 57 ± 5 | 57 | 122 to 124 | 57 ± 5 | – | –
7 | C#Cc1cccc(Nc2ncnc3cc(OCCOC)c(OCCOC)cc23)c1 [Erlotinib, reference compound] | – | 30 ± 3 | 40 ± 3 | 30 ± 3 | 33 | – | 30 ± 3 | – | –
8 | C=CCn1c(SCc2nc(-c3ccccc3)no2)nc2ccccc2c1=O [Compound 9m, 2-((3-Phenyl-1,2,4-oxadiazol-5-yl)methylthio)-3-allylquinazolin-4(3H)-one] | 92 | 62 ± 6 | 65 ± 6 | 64 ± 6 | 63 | 110 to 112 | 62 ± 6 | – | –
9 | CCn1c(SCc2nc(-c3ccc(OC)cc3)no2)nc2ccccc2c1=O [Compound 9l, 2-((3-(4-Methoxyphenyl)-1,2,4-oxadiazol-5-yl)methylthio)-3-ethylquinazolin-4(3H)-one] | 90 | 36 ± 3 | 40 ± 4 | 38 ± 3 | 38 | 134 to 136 | 37 ± 3 | 91 ± 7 | 70 ± 5
10 | Cc1ccc(-n2c(SCc3nc(-c4ccccc4)no3)nc3ccccc3c2=O)cc1 [Compound 9d, 2-((3-Phenyl-1,2,4-oxadiazol-5-yl)methylthio)-3-p-tolylquinazolin-4(3H)-one] | 90 | 54 ± 4 | 58 ± 5 | 54 ± 5 | 55 | 168 to 170 | 55 ± 5 | – | –
11 | O=c1c2ccccc2nc(SCc2nc(-c3ccccc3)no2)n1-c1ccccc1 [Compound 9a, 2-((3-Phenyl-1,2,4-oxadiazol-5-yl)methylthio)-3-phenylquinazolin-4(3H)-one] | 90 | 46 ± 4 | 50 ± 4 | 48 ± 4 | 48 | 162 to 164 | 48 ± 4 | – | –
12 | COc1ccc(-c2noc(CSc3nc4ccccc4c(=O)n3-c3cccc(C)c3)n2)cc1 [Compound 9i, 2-((3-(4-Methoxyphenyl)-1,2,4-oxadiazol-5-yl)methylthio)-3-m-tolylquinazolin-4(3H)-one] | 91 | 65 ± 6 | 69 ± 6 | 66 ± 6 | 67 | 194 to 196 | 68 ± 6 | – | –
13 | CCn1c(SCc2nc(-c3ccc(Cl)cc3)no2)nc2ccccc2c1=O [Compound 9k, 2-((3-(4-Chlorophenyl)-1,2,4-oxadiazol-5-yl)methylthio)-3-ethylquinazolin-4(3H)-one] | 93 | 32 ± 3 | 35 ± 3 | 34 ± 3 | 34 | 118 to 120 | 34 ± 3 | 84 ± 6 | 62 ± 5
